From patent US20250041380A1, “R[…] FOR SARS-COV2 DISEASE” (priority 2021, published 2025)
Read-outs that look alike come from different tables or passages of the source.

Experiments:
Lung cells (A549) = type: cell-based, Human
Immune cells (THP-1) = type: cell-based, Human

For `CCN(CCO)CCCC(C)Nc1ccnc2cc(Cl)ccc12` (centres unmarked) [Hydroxychloroquine sulphate], the “Inhibition of IL-6” value (Lung cells (A549); 0.1 µM) was 34.7%, the “Inhibition of IL-8” value (Lung cells (A549); 0.1 µM) was 54.4% and the “Inhibition of IL-6” value (Lung cells (A549); 1 µM) was 53.4%. For the same compound, the “Inhibition of IL-8” value (Lung cells (A549); 1 µM) was 40.8%, the “Inhibition of IL-6” value (Lung cells (A549); 5 µM) was 66.5% and the “Inhibition of IL-8” value (Lung cells (A549); 5 µM) was 56.7%. For the same compound, the “Inhibition of IL-6” value (Lung cells (A549); 10 µM) was 60.7%, the “Inhibition of IL-8” value (Lung cells (A549); 10 µM) was 44.0% and the “Inhibition of IL-6” value (Lung cells (A549); 20 µM) was 71.4%. The “Inhibition of IL-8” value (Lung cells (A549); 20 µM) was 65.0%, the “Inhibition of IL-6” value (Immune cells (THP-1); 0.1 µM) was 90.7% and the “Inhibition of IL-8” value (Immune cells (THP-1); 0.1 µM) was 23.2%. The “Inhibition of IL-6” value (Immune cells (THP-1); 1 µM) was 83.9%, the “Inhibition of IL-8” value (Immune cells (THP-1); 1 µM) was 36.8% and the “Inhibition of IL-6” value (Immune cells (THP-1); 5 µM) was 94.2%. The “Inhibition of IL-8” value (Immune cells (THP-1); 5 µM) was 53.4%, the “Inhibition of IL-6” value (Immune cells (THP-1); 10 µM) was 84.5% and the “Inhibition of IL-8” value (Immune cells (THP-1); 10 µM) was 53.5%. For the same compound, the “Inhibition of IL-6” value (Immune cells (THP-1); 20 µM) was 100.0% and the “Inhibition of IL-8” value (Immune cells (THP-1); 20 µM) was 36.1%.
